Tests used:
[1] = tested on: SNAP/FLAG-hGLP1R^A316T versus ^WT; assay: High content microscopy GLP-1R internalization assay; type: cell-based, rat; details: INS-1 832/3 sublines; 5-60 min; AUC; n = 3; Fig. 7G
Method: INS-1 832/3 Glp1r^−/− SNAP/FLAG-hGLP1R^WT or ^A316T cells were seeded onto poly-D-lysine–coated black 96-well plates for 24 hours before the assay. Cells were labeled for 30 min with 1 μM SNAP surface cleavable BG-SS-649 probe at 37°C and washed once with HBSS before treatment with GLP-1RA or vehicle for 60, 30, 15, or 5 min at 37°C in complete medium. Cells were then washed with cold HBSS, and subsequent steps were carried out at 4°C. The cell-impermeable reducing agent Mesna {100 mM in alkaline tris-NaCl-EDTA (TNE) buffer [20 mM tris-HCl, 1 mM EDTA, and 150 mM NaCl (pH 8.6)]} or alkaline TNE buffer without Mesna was applied for 5 min to cleave BG-SS-649 probe left at the cell surface and then washed with HBSS. […] Internalized GLP-1R, indicated by cell-associated fluorescence, was analyzed after flat-field correction of fluorescent images using the BaSiC plugin ([96]), segmentation of cell-containing regions from phase contrast images using Phantast ([97]), and fluorescence intensity quantification. The percentage of internalized receptor was calculated as follows F+Me(tx)/F−Me(tx)−F+Me(t0)/F−Me(t0)/1−F+Me(t0)/F−Me(t0) where F+Me and F−Me are mean fluorescence intensities ± Mesna at times tx (5, 15, 30, or 60 min) or t0 (0 min). […]

[2] = tested on: hGLP1R^A316T/A316T versus hGLP1R^+/+ mice; assay: Plasma insulin 10 min into IPGTT, chow-fed mice; type: in vivo, mouse; details: chow diet
Method: To measure insulin release during IPGTTs, 10 μl of blood samples were collected via tail venipuncture 10 min after a glucose challenge.
Plasma was collected into potassium EDTA cuvettes (Microvette CB 300, 16.444.100, Starstedt) and stored on ice before centrifugation at 8,000g for 10 min at 4°C to collect plasma supernatants in fresh Eppendorf tubes kept at −80°C until further analysis.

[3] = tested on: hGLP1R^A316T/A316T versus hGLP1R^+/+ mice; assay: IPGTT after GLP-1RA, HFHS-fed homozygous mice; type: in vivo, mouse; details: HFHS diet; 2 nmol/kg ip; acute and 6 hours; n = 9; Fig. 2G-J
Method: All animal procedures were approved by the British Home Office under the UK animals (Scientific Procedures) Act 1986 (Project License number PP7151519 to A. Martinez-Sanchez, Imperial College London, UK) and from the local ethical committee (Animal Welfare and Ethics Review Board) at the Central Biological Services unit of Imperial College London. Animals were housed in groups of up to four adult mice in individually ventilated cages under controlled conditions at 21° to 23°C with 12-hour:12-hour light-to-dark cycles (lights on at 07:00). Ad libitum access to water and feed was provided unless otherwise stated. Lean mice were fed a standard chow diet [RM1 (E); Special Diet Services]. For HFHS diet studies, animals were put on a 58 kcal % fat and sucrose diet (D12331, Research Diets Inc.) ad libitum for 10 to 14 weeks before experiments.
To examine acute and prolonged glycemic responses to GLP-1RAs, animals were fasted for 2 hours, starting at 8 a.m. on the morning of the experiments, before IPGTTs. GLP-1RAs were then coadministered at the indicated concentrations with 20% (w/v) D-glucose via intraperitoneal injection at weight-adjusted volumes. Baseline glucose readings were taken via tail venipuncture, and subsequent readings were taken at various time points after glucose ± GLP-1RA administration as for the OGTTs (0-hour acute IPGTTs). […]

[4] = tested on: human GLP-1R A316T versus WT; assay: Real-time cAMP imaging (cADDis) in mouse islets; type: cell-based; details: chow-fed mouse islets; 100 nM; 6 mM glucose; AUC; n = 4; not significant; Fig. 5D-F
Method: To measure cAMP, hGLP1R^A316T/A316T versus ^+/+ control mouse islets, or INS-1 832/3 SNAP/FLAG-hGLP1R^WT versus ^A316T cells cultured on glass-bottom MatTek dishes, were transduced with cADDis (Green Gs cADDis cAMP Kit, Montana Molecular), a baculovirus genetically encoding a fluorescent cAMP in situ biosensor, following the manufacturer’s instructions. Transduced islets were subsequently encased into Matrigel on glass-bottom MatTek dishes 24 hours after transduction, and both islets and cells were imaged at λex = 488 nm in a Nikon Eclipse Ti spinning disk confocal microscope and 20× objective with an ORCA-Flash 4.0 camera (Hamamatsu) for time-lapse recordings with image acquisitions every 6 s in KRBH buffer containing 0.1% (w/v) BSA and 6 mM glucose for 2 min to record the baseline, with 100 nM GLP-1RA subsequently added by manual pipetting, and islets imaged for a further 5 min before addition of 100 μM IBMX + 10 μM forskolin for the final 2 min of the acquisition. Raw green fluorescence intensity traces were extracted from whole islet regions of interest (ROIs) using Fiji, and mean intensities were calculated for each ROI and time point. Responses were plotted relative to average fluorescence intensity per islet during the baseline period before GLP-1RA addition.

Substance | A316T GLP-1R internalization versus WT [1] | Plasma insulin increase in response to agonist, hGLP1R^A316T/A316T mice ([2]; 10 min into IPGTT, relative to effect in hGLP1R^+/+, Fig. 1L,M) | Plasma insulin levels in response to agonist, hGLP1R^+/+ mice ([2]; 10 min into IPGTT, versus vehicle, Fig. 1L,M) | Agonist-dependent plasma insulin rises (vehicle fold changes), A316T/A316T versus +/+ ([2]; significant at the 6-hour time point, Fig. 1N) | IPGTT glucose responses, A316T/A316T versus +/+ [3] | cAMP response to agonist, A316T/A316T versus +/+ islets [4]
GLP-1(7-36)NH2 | significantly increased |  |  |  |  | 
exendin-4 |  | attenuated | increased | reduced | slightly more pronounced desensitization | trend for reduced cAMP
exendin-F1 |  |  |  |  | slightly more pronounced desensitization | near-significant increase in cAMP
